Molecules are shown by their SMILES. In brackets after ≈: the same amount, converted by molar mass.

What is called solubility is how much of the substance goes into solution per volume. Read a low solubility as little dissolved substance.

Series [1] is described as follows: Solubility test in PBS (saturated solution, HPLC external standard). The conditions noted are these: shaking at 37 °C for 4 h, supernatant by HPLC. The class given is physicochemical. On the procedure:
Since the solubility of the drug directly affects the dissolution and oral bioavailability of the drug preparation, the inventor investigated the solubility of the honokiol crystal forms A, B and C in PBS. Preparing respective saturated solutions of the honokiol crystal forms A, B and C, shaking at 37 °C for 4 h, and centrifuging and transferring the supernatant into a high performance liquid chromatograph. At the same time, preparing a standard solution of the honokiol (source: China Institutes for Food and Drug Control, Batch No.: 110730-201915, ID: EH2H-BMTW), and using the external standard method for quantification.

A short description of series [2]: Stress tests (high temperature, high humidity, high-light irradiation), related substances by HPLC. The class given is physicochemical. The conditions noted are these: for purity after the high humidity test: high humidity (relative humidity 92.5%, 25° C.); for purity after the high temperature test: high temperature (60° C.); for purity after intense light / high-light irradiation test: high-light irradiation (illuminance 45001×+5001×). On the procedure: Treating the honokiol crystal forms A, B and C under high temperature (60° C.), high humidity (relative humidity 92.5%, 25° C.) and high-light irradiation (illuminance 45001×+5001×), respectively, diluting with methanol, and investigating the changes of related substances through testing with HPLC.

In turn, `C=CCc1ccc(O)c(-c2ccc(O)c(CC=C)c2)c1` [honokiol crystal form A, 3′,5-di-2-propenyl-1,1′-biphenyl-2,4′-diphenol] returned a solubility in series [1] of 41.35 µg/mL (≈ 155 µM). In addition, in series [2], the “purity before the stress test” value is listed as 99.83%, the “purity after the high humidity test” value was 99.67%, the “purity after the high temperature test” value turned out to be 99.63% and the “purity after intense light / high-light irradiation test” value is listed as 99.64%.

Take `C=CCc1ccc(O)c(-c2ccc(O)c(CC=C)c2)c1` [honokiol crystal form C, 3′,5-di-2-propenyl-1,1′-biphenyl-2,4′-diphenol]: the solubility in series [1] was found to be 48.12 µg/mL (≈ 181 µM). Further, in series [2], the “purity before the stress test” value is recorded as 99.86%, the “purity after the high humidity test” value was 99.59%, the “purity after the high temperature test” value worked out at 99.36% and the “purity after intense light / high-light irradiation test” value was 99.31%.

For `C=CCc1ccc(O)c(-c2ccc(O)c(CC=C)c2)c1` [honokiol crystal form B, 3′,5-di-2-propenyl-1,1′-biphenyl-2,4′-diphenol], the solubility at 4 h in series [1] (PBS, 37 °C, aqueous buffer, thermodynamic from solid) turned out to be 43.7 µg/mL (≈ 164 µM). In series [2], the “purity before the stress test” value is given as 99.88%, the “purity after the high humidity test” value was 99.70%, the “purity after the high temperature test” value is listed as 99.70% and the “purity after intense light / high-light irradiation test” value worked out at 99.60%.
